Here are results for 2 molecules from PMC10193983 (Proceedings of the National Academy of Sciences of the …, 2023).

In this assay the target is MnMT4. Nature of the assay: biolayer interferometry. The class given is binding, Mycolicibacterium neoaurum.

`Nc1ncnc2c1ncn2[C@@H]1O[C@H](CSCC[C@H](N)C(=O)O)[C@@H](O)[C@H]1O` [SAH] displayed a Kd of 0.0291 µM. The molecule `C[S+](CC[C@H](N)C(=O)[O-])C[C@H]1O[C@@H](n2cnc3c(N)ncnc32)[C@H](O)[C@@H]1O` (some centres unmarked) [SAM] showed a dissociation constant (Kd) of 18.4 µM.
